The SangsterLogP compilation

Row | logP | SMILES
1 | 2.02 | CCCOc1ccc(Cc2cnc(N)nc2N)cc1OC
2 | 1.82 | CN(C)c1ccc(Cc2cnc(N)nc2N)cc1
3 | 2.43 | CCN(CC)c1cc(Cc2cnc(N)nc2N)ccc1OC
4 | 2.65 | COc1cc(Cc2cnc(N)nc2N)ccc1OC1CCCC1
5 | 2.18 | CCOc1cc(Br)c(Cc2cnc(N)nc2N)cc1OC
6 | 1.72 | CCOc1ccc(Cc2cnc(N)nc2N)cc1OCC
7 | 1.87 | COc1cc(Cc2cnc(N)nc2N)ccc1Cl
8 | 2.31 | CCCOc1cc(Cc2cnc(N)nc2N)c(Br)cc1OC
9 | 1.54 | Nc1ncc(Cc2ccccc2)c(N)n1
10 | 1.75 | COc1ccccc1Cc1cnc(N)nc1N
11 | 1.34 | COc1ccc(Cc2cnc(N)nc2N)cc1
12 | 3.17 | COc1cc(Cc2cnc(N)nc2N)c(Br)cc1Br
13 | 1.88 | CCCOc1cc(Cc2cnc(N)nc2N)ccc1OC
14 | 1.81 | CCOc1cc(Cc2cnc(N)nc2N)c(Br)c(OCC)c1OCC
15 | 2.88 | COc1ccc(Cc2cnc(N)nc2N)cc1Nc1ccccc1
16 | 1.64 | COc1cc(Br)c(Cc2cnc(N)nc2N)cc1OC
17 | 1.66 | COc1cc(Cc2cnc(N)nc2N)c(Br)c(OC)c1OC

Continued, molecule first:

Row | SMILES | logP
18 | COc1ccc(Br)c(Cc2cnc(N)nc2N)c1 | 2
19 | COc1cc(Cc2cnc(N)nc2N)ccc1Oc1ccccc1 | 2.49
20 | COc1ccc(Cc2cnc(N)nc2N)cc1C(C)C | 2.79
21 | CCCOc1cc(Br)c(Cc2cnc(N)nc2N)cc1OC | 2.84
22 | COc1ccc(I)cc1Cc1cnc(N)nc1N | 2.7
23 | COc1cc(Cc2cnc(N)nc2N)ccc1C(C)C | 3.14
24 | COc1ccc(Cc2cnc(N)nc2N)cc1I | 2.09
25 | COc1ccc(Cc2cnc(N)nc2N)cc1N(C)C | 1.68
26 | COc1cc(Cc2cnc(N)nc2N)ccc1N(C)C | 1.87
27 | COc1cc(Cc2cnc(N)nc2N)ccc1N | 0.49
28 | COc1ccc(Cc2cnc(N)nc2N)cc1N | 0.76
29 | COc1ccc(Cc2cnc(N)nc2N)cc1C | 1.91
30 | COc1ccc(Br)cc1Cc1cnc(N)nc1N | 2.44
31 | CCOc1cc(Cc2cnc(N)nc2N)c(Br)cc1OC | 1.86
32 | COc1ccc(Cc2cnc(N)nc2N)cc1Br | 1.88
33 | CCOc1cc(Cc2cnc(N)nc2N)cc(OCC)c1OCC | 2.08
34 | COc1c(Br)c(Cc2cnc(N)nc2N)c(Br)c(OC)c1OC | 1.73
35 | CCOc1ccc(Cc2cnc(N)nc2N)cc1OC | 1.34
36 | COc1ccc(Cc2cnc(N)nc2N)cc1F | 1.08
37 | COc1cc(Cc2cnc(N)nc2N)ccc1Nc1ccccc1 | 3.42
38 | COc1ccc(Cc2cnc(N)nc2N)cc1Oc1ccccc1 | 2.12
39 | CCOc1cc(Cc2cnc(N)nc2N)c(I)c(OCC)c1OCC | 2.9
40 | CCOc1cc(Cc2cnc(N)nc2N)ccc1OC | 1.2
